# Source: patent US9708282B1, “Anti-inflammatory and antiepileptic neuroprotective statin compounds” (NEURON BIOPHARMA, S.A., priority 2013, dated 2017)
# What was measured:
# [1] = target: T1, 3-hydroxy-3-methylglutaryl coenzyme A reductase (HMGCR) (Homo sapiens, UniProt P04035); assay: Inhibition of HMGCR enzymatic activity in vitro (NADPH absorbance at 340 nm); type: biochemical; conditions: hydroxy acid forms
# T1 construct: representing oxidation of NADPH by the catalytic subunit of HMGCR in the presence of the substrate
# T1 sequence (P04035 426-888 limits assumed): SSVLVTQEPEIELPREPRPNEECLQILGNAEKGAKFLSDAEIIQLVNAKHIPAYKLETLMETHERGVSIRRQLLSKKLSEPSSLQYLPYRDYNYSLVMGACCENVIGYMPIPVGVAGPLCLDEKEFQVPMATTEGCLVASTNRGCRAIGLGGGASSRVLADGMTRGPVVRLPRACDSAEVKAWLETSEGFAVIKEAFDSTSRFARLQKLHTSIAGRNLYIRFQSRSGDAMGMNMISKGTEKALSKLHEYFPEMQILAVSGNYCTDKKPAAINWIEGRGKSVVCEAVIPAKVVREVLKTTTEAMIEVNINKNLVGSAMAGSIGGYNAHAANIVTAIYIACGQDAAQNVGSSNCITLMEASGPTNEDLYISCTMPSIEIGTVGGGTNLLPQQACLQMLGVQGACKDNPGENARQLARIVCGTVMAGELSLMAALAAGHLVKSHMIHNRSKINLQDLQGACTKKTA
# Text: The degree of inhibition of the HMGCR enzyme in vitro by NST0076 and NST0078 in the hydroxy acid form thereof was studied.
# During the reaction, HMGCR uses NADPH (Nicotinamide Adenine Dinucleotide Phosphate) as reducing agent and 3-hydroxy-3-methylglutaryl coenzyme A (HMG-CoA) as substrate. Mevalonic acid is obtained as a reaction product, and it serves as substrate for the subsequent reaction to continue with cholesterol synthesis. The enzymatic reaction object of study is schematized as follows: HMG-CoA+2.NADPH+2.H^+→Mevalonic acid+2.NADP^++CoASH
# This in vitro assay is based on the spectrophotometric measurement of the decrease in absorbance at 340 nm, representing oxidation of NADPH by the catalytic subunit of HMGCR in the presence of the substrate. […] Briefly, the assay is performed in a 96-well plate with reaction buffer 50 mM KH2PO4, 1 M KCl, 2 mg/ml bovine serum albumin (BSA) and 5 mM DTT, at pH=7.3, and the concentrations of the reagents in the reaction mixture are 0.2 mM HMG-CoA, 3 μU/point HMGCR and 0.2 mM NADPH. The plate is read in a spectrophotometer at 340 nm and 37° C.
# transgenic ApoB100 mice = assay: Hypocholesterolemic effect in endogenous (familial) hypercholesterolemia model; type: in vivo; conditions: 50 mg/kg i.p., 12 h after treatment, male ApoB100 mice
# Protocol: The mice were inoculated i.p. with 50 mg/kg of the compounds. Control mice were inoculated with equivalent volumes of the vehicle. Blood was drawn in fasting conditions before treating the animals and 12 h after treatments. Plasma, which was subsequently frozen, was obtained in both cases. The plasma total, LDL and HDL cholesterol concentration was quantified by enzymatic and spectrophotometric methods. After determining cholesterol levels and cholesterol fraction levels (baseline levels and 12 h after treatments), the change thereof with respect to the baseline level was calculated, and the results were depicted as a percentage with respect to the control group.
# reactive astroglia = assay: Protection against brain inflammation (astrogliosis, GFAP immunohistochemistry) induced by kainate; type: in vivo, mice; conditions: 3.125 mg/kg i.p. 24 h and 0.5 h before kainate 23 mg/kg, then 1 dose/day for three days; surviving animals
# Protocol: Based on the coronal sections of the brain obtained during the experiment described above, astrogliosis was analyzed by means of bright field immunohistochemistry for the glial fibrillary acidic protein (GFAP) in surviving animals.
# The degree to which astrogliosis has spread (or score) was determined on a scale of intensity from 0 to 3, where zero indicates the absence of reactive astroglia and three indicates maximum reactive astroglia, for each of the groups.
# β-secretase (BACE) [2] = target: T2, β-secretase (BACE) (Mus musculus, UniProt P56818); assay: β-secretase (BACE) enzymatic activity in the brain of mice after i.p. administration; type: in vivo; conditions: 50 mg/kg i.p., 24 h after administration, FVB mice, brain homogenates
# T2 construct: contacting a BACE-specific, fluorogenic substrate with a brain homogenate in which the enzyme is present; from tissue; host or cells: brain (without cerebellum) of FVB mice
# T2 sequence (P56818 46-501): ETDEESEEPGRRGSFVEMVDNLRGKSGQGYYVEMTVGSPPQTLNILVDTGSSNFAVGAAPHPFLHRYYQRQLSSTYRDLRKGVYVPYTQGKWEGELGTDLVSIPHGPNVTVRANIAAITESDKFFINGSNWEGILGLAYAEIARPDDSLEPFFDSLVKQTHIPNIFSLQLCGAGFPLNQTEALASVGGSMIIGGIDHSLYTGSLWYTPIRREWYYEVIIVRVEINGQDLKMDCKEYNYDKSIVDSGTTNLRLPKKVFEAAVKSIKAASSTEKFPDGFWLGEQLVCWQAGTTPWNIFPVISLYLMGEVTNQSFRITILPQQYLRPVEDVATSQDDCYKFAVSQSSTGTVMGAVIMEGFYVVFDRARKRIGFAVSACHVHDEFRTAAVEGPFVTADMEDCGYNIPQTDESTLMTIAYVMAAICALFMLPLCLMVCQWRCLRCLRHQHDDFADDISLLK
# Protocol: During the reaction, contacting a BACE-specific, fluorogenic substrate with a brain homogenate in which the enzyme is present allows quantifying the enzyme activity by means of measuring the fluorescence emitted.
# Female FVB mice 4 months of age were treated i.p. with 50 mg/kg of the compounds or with equivalent volumes of the vehicle (n=6 mice/group). After 24 h, the animals were sacrificed and the brain was extracted and frozen at −20° C., first disposing of the cerebellum. After freezing the brains for 24 h, they were homogenized by making a 1/100 dilution in 0.1 M sodium acetate at pH 4. The samples were incubated for 10 minutes under cold conditions to favor lysis and to obtain the extract after centrifuging at 10,000 g for 10 minutes. The enzymatic reaction was then carried out. […] 50 μL of a 20 μM fluorogenic BACE substrate (Mca-[…]) were added to the samples and controls, the final concentration in the well being 10 μM and the total reaction volume being 100 μL. […] The results obtained in arbitrary units were normalized by the amount of protein that was determined by the bicinchoninic acid (BCA) method.
# [3] = Concentrations in the brain of mice after i.p. administration (UPLC-MS); type: in vivo; conditions: male FVB mice, lactone forms; for AUC in the brain: 50 mg/kg i.p., 1, 2, 4 and 6 h; for Brain AUC and Cmax compared with simvastatin: 50 mg/kg i.p.
# Protocol: (§1) Male FVB mice 4 months of age were treated i.p. with 50 mg/kg of the compounds (n=4-8 mice/group/time). The animals were sacrificed 1, 2, 4 and 6 h after treatment by means of injecting Eutanax, the blood and brain being extracted after perfusion with PBS. The plasma obtained from the blood and the entire brain were frozen at −20° C. until analysis. The compounds were extracted from the tissues with ethyl acetate and resuspended in ethanol for subsequent UPLC-MS quantification. Fluvastatin was used as an internal standard.
# [4] = Concentrations in plasma of mice after i.p. administration (UPLC-MS); type: in vivo; conditions: male FVB mice, lactone forms; for Plasma levels compared with simvastatin: 50 mg/kg i.p.; for AUC: mouse, plasma, ip, 50 mg/kg i.p., 1, 2, 4 and 6 h
# Protocol: as §1
# FVB/NRj mice = assay: Protection against epilepsy caused by kainate (Racine scale); conditions: 3.125 mg/kg i.p. 24 h and 0.5 h before kainate 23 mg/kg
# [5] = test system: neurons of the hippocampus; conditions: 3.125 mg/kg i.p. 24 h and 0.5 h before kainate 23 mg/kg, then 1 dose/day for three days
# β-secretase (BACE) [6] = assay: β-secretase (BACE) enzymatic activity in the brain of zebra fish after i.p. administration; type: in vivo; conditions: 100 mg/kg i.p., 24 h after administration, zebra fish 24 months of age
# Protocol: The compounds object of study were prepared at different concentrations according to the weight of the animals in 0.5% methylcellulose in physiological saline, homogeneous suspensions thereof being obtained. Female zebra fish 24 months of age were treated i.p. with 100 mg/kg of the compounds or with equivalent volumes of the vehicle (n=8 fish/group). After 24 h, the animals were sacrificed and the brain was extracted and frozen at −20° C. After freezing the brains for 24 h, they were homogenized in 500 μL of 0.1 M sodium acetate at pH 4. The samples were incubated for 10 minutes under cold conditions to favor lysis and to obtain the extract after centrifuging at 10,000 g for 10 minutes. The enzymatic reaction was then carried out in the same way as in the case mice.
Structure (SMILES),HMGCR inhibition (in words) [1],"HMGCR inhibition, times less than simvastatin [1]","IC50 ([1]; 20 min, 37° C., read-out: IC50 (concentration at which 50% of the HMGCR enzymatic activity is inhibited))","Hypocholesterolemic effect (change in plasma total, LDL and HDL cholesterol) (transgenic ApoB100 mice)",Degree of astrogliosis induced by kainate (score 0 to 3) (reactive astroglia),BACE enzymatic activity in the brain of mice (β-secretase (BACE) [2]),AUC in the brain [3],Brain AUC and Cmax compared with simvastatin [3],Plasma levels compared with simvastatin [4],AUC [4],"Levels of epilepsy (AUC of Racine scale over 120 min, with respect to Vehicle+KA group) (FVB/NRj mice)",Percentage of animals without damage (hippocampus) [5],BACE enzymatic activity in the brain of zebra fish (β-secretase (BACE) [6])
"CCC(CC)C(=O)O[C@H]1C[C@@H](C)C=C2C=C[C@H](C)[C@H](CC[C@@H]3C[C@@H](O)C(C)C(=O)O3)[C@H]21 (stereo partly drawn) [NST0076, (1S,3R,7S,8S,8aR)-8-(2-((2R,4R)-4-hydroxy-5-methyl-6-oxo-tetrahydro-2H-pyran-2-yl)ethyl)-3,7-dimethyl-1,2,3,7,8,8a-hexahydro-naphthalen-1-yl 2-ethylbutanoate]",do not significantly inhibit the HMGCR enzyme,about 28 times,603 ± 177 nM,did not show any hypocholesterolemic effect,protected against astrogliosis induced by kainate in all the studied regions,capable of reducing BACE enzymatic activity in a statistically significant manner,37 µg·h/g,AUC and Cmax values surprisingly greater than those of simvastatin,plasma levels considerably greater than simvastatin,12000 ng·h/mL,greater reduction of the levels of epilepsy compared to simvastatin,50%,
"CCC(CC)C(=O)O[C@H]1C[C@@H](C)C=C2C=C[C@H](C)[C@H](CC[C@@H]3C[C@@H](O)C(CC)C(=O)O3)[C@H]21 (stereo partly drawn) [NST0078, (1S,3R,7S,8S,8aR)-8-(2-((2R,4R)-5-ethyl-4-hydroxy-6-oxo-tetrahydro-2H-pyran-2-yl)ethyl)-3,7-dimethyl-1,2,3,7,8,8a-hexahydronaphthalen-1-yl 2-ethylbutanoate]",,"about 1,900 times",,did not show any hypocholesterolemic effect,protected against astrogliosis induced by kainate in all the studied regions,capable of reducing BACE enzymatic activity in a statistically significant manner,17 µg·h/g,AUC and Cmax values surprisingly greater than those of simvastatin,plasma levels considerably greater than simvastatin,17000 ng·h/mL,greater reduction of the levels of epilepsy compared to simvastatin,60%,capable of reducing BACE enzymatic activity with respect to the control in a statistically significant manner
"C[C@H]1C=C2C=C[C@H](C)[C@H](CC[C@@H]3C[C@@H](O)CC(=O)O3)[C@H]2[C@@H](O)C1 [monacolin J, reference compound]",HMGCR inhibitory capacity much less than that of simvastatin,,,,,,,,,,,,
"CCC(C)(C)C(=O)O[C@H]1C[C@@H](C)C=C2C=C[C@H](C)[C@H](CC[C@@H]3C[C@@H](O)CC(=O)O3)[C@H]21 [simvastatin, reference compound]",,,,,,,,,,,,25%,
